# From patent US6436948B1, “Method for the treatment of psoriasis and genital warts” (priority 1995, dated 2002)
# Experiments:
# Leukemia P388 cells = test: In vivo treatment of leukemia P388 cells implanted ip in BDF1 mice; details: 25x2x5 mg/kg ip
# Procedure: 10^6 Leukemia P388 cells were implanted ip to BDF1 mice obtained from Southern Research Institute, Alabama. (−)-OddC was administered ip twice daily for five days starting one day after tumor cell implantation.
# FIG. 3 and Table 1 show the results of these studies.
# BDF1 mice = test: Toxicity to BDF1 mice, ip twice daily for five days; assay type: in vivo; details: 75 mg/kg/dose ip twice daily for five days
# Colon 38 tumor cells = test: In vivo treatment of Colon 38 tumor cells implanted sc in BDF1 mice; set-up: species or system mouse; details: 25 mg/kg/dose twice daily for five days
# Excerpt: The graph plots tumor growth as a percentage of original tumor weight vs. days. Treatment of the mice occurred in days 1, 2, 3, 4 and 5.
# Colon 38 tumor cells were implanted sc to BDF1 mice.
# CCRF-CEM = test: NCI cancer screening program, SRB: CCRF-CEM; assay type: cell-based; details: Leukemia, log10 concentration at PG +50, 48 hours
# RL-60(TB) = test: NCI cancer screening program, SRB: RL-60(TB); assay type: cell-based
# K-562 = test: NCI cancer screening program, SRB: K-562; assay type: cell-based; details: Leukemia, PG +50, 48 hours
# BSOLT-4 = test: NCI cancer screening program, SRB: BSOLT-4; assay type: cell-based; details: Leukemia, PG +50, 48 hours
# RPMI-2.26 = test: NCI cancer screening program, SRB: RPMI-2.26; assay type: cell-based; details: Leukemia, PG +50, 48 hours
# SR = test: NCI cancer screening program, SRB: SR; assay type: cell-based; details: Leukemia, PG +50, 48 hours
# HOP-62 = test: NCI cancer screening program, SRB: HOP-62; assay type: cell-based; details: Non-Small Cell Lung Cancer, PG +50, 48 hours
# NCI-H23 = test: NCI cancer screening program, SRB: NCI-H23; assay type: cell-based; details: Non-Small Cell Lung Cancer, PG +50, 48 hours
# NCI-H460 = test: NCI cancer screening program, SRB: NCI-H460; assay type: cell-based; details: Non-Small Cell Lung Cancer, PG +50, 48 hours
# NCI-H522 = test: NCI cancer screening program, SRB: NCI-H522; assay type: cell-based; details: Non-Small Cell Lung Cancer, PG +50, 48 hours
# COLO205 = test: NCI cancer screening program, SRB: COLO205; assay type: cell-based; details: Colon Cancer
# HCT-116 = test: NCI cancer screening program, SRB: HCT-116; assay type: cell-based; details: Colon Cancer, PG +50, 48 hours
# HCT-15 = test: NCI cancer screening program, SRB: HCT-15; assay type: cell-based; details: Colon Cancer, PG +50, 48 hours
# HT29 = test: NCI cancer screening program, SRB: HT29; assay type: cell-based; details: Colon Cancer, PG +50, 48 hours
# SNB-19 = test: NCI cancer screening program, SRB: SNB-19; assay type: cell-based; details: CNS Cancer, PG +50, 48 hours
# U251 = test: NCI cancer screening program, SRB: U251; assay type: cell-based; details: CNS Cancer, PG +50, 48 hours
# LOX D6VI = test: NCI cancer screening program, SRB: LOX D6VI; assay type: cell-based; details: Melanoma
# MALME-3M = test: NCI cancer screening program, SRB: MALME-3M; assay type: cell-based; details: Melanoma, PG +50, 48 hours
# SK-MEL-28 = test: NCI cancer screening program, SRB: SK-MEL-28; assay type: cell-based; details: Melanoma, PG +50, 48 hours
# SK-MEL-5 = test: NCI cancer screening program, SRB: SK-MEL-5; assay type: cell-based; details: Melanoma, PG +50, 48 hours
# UACC-257 = test: NCI cancer screening program, SRB: UACC-257; assay type: cell-based; details: Melanoma, PG +50, 48 hours
# UACC-62 = test: NCI cancer screening program, SRB: UACC-62; assay type: cell-based; details: Melanoma, PG +50, 48 hours
# OVCAR-3 = test: NCI cancer screening program, SRB: OVCAR-3; assay type: cell-based; details: Ovarian Cancer
# OVCAR-4 = test: NCI cancer screening program, SRB: OVCAR-4; assay type: cell-based; details: Ovarian Cancer, PG +50, 48 hours
# OVCAR-5 = test: NCI cancer screening program, SRB: OVCAR-5; assay type: cell-based; details: Ovarian Cancer, PG +50, 48 hours
# OVCAR-8 = test: NCI cancer screening program, SRB: OVCAR-8; assay type: cell-based; details: Ovarian Cancer
# SK-OV-3 = test: NCI cancer screening program, SRB: SK-OV-3; assay type: cell-based; details: Ovarian Cancer
# ACHN = test: NCI cancer screening program, SRB: ACHN; assay type: cell-based; details: Renal Cancer, PG +50, 48 hours
# CAKI-1 = test: NCI cancer screening program, SRB: CAKI-1; assay type: cell-based; details: Renal Cancer, PG +50, 48 hours
# RXF-393 = test: NCI cancer screening program, SRB: RXF-393; assay type: cell-based; details: Renal Cancer, PG +50, 48 hours
structure (smiles),measurement,setting,value
"Nc1ccn([C@@H]2CO[C@H](CO)O2)c(=O)n1 [(−)-OddC, (−)-(2S,4S)-1-(2-hydroxymethyl-1,3-dioxolan-4-yl)cytosine]",Cures/Total (survivors equal or greater than 45 day life span),Leukemia P388 cells,one long term survivor
same,Mean Survival Time,"Leukemia P388 cells; twice a day on days 1 to 5, 10^6 P388 cells ip on day 0",27 days
same,Toxicity to the mice,BDF1 mice,toxic
same,Colon tumor cell growth,Colon 38 tumor cells,retarded
same,Log10GI50,CCRF-CEM,−6.64
same,Log10GI50,RL-60(TB),−6.28
same,Log10GI50,K-562,−4.59
same,Log10GI50,BSOLT-4,−6.66
same,Log10GI50,RPMI-2.26,−4.03
same,Log10GI50,SR,−5.95
same,Log10GI50,HOP-62,−6.23
same,Log10GI50,NCI-H23,−4.92
same,Log10GI50,NCI-H460,−4.32
same,Log10GI50,NCI-H522,−6.06
same,Log10TGI,"COLO205; PG 0, 48 hours",>−4.00
same,Log10GI50,"COLO205; PG +50, 48 hours",−4.03
same,Log10GI50,HCT-116,−5.23
same,Log10GI50,HCT-15,−5.39
same,Log10GI50,HT29,>−4.00
same,Log10GI50,SNB-19,−5.71
same,Log10GI50,U251,−4.91
same,Log10TGI,"LOX D6VI; PG 0, 48 hours",>−4.00
same,Log10GI50,"LOX D6VI; PG +50, 48 hours",−6.39
same,Log10GI50,MALME-3M,−4.51
same,Log10GI50,SK-MEL-28,−4.31
same,Log10GI50,SK-MEL-5,−4.91
same,LOG10GI50,UACC-257,>−4.00
same,LOG10GI50,UACC-62,−5.53
same,LOG10TGI,"OVCAR-3; PG 0, 48 hours",>−4.00
same,LOG10GI50,"OVCAR-3; PG +50, 48 hours",−4.44
same,LOG10GI50,OVCAR-4,>−4.00
same,LOG10GI50,OVCAR-5,−4.41
same,LOG10TGI,"OVCAR-8; PG 0, 48 hours",>−4.00
same,LOG10GI50,"OVCAR-8; PG +50, 48 hours",−5.82
same,LOG10TGI,"SK-OV-3; PG 0, 48 hours",>−4.00
same,LOG10GI50,"SK-OV-3; PG +50, 48 hours",−5.35
same,LOG10GI50,ACHN,−6.46
same,LOG10GI50,CAKI-1,−6.65
same,LOG10GI50,RXF-393,−6.17
